Laboratory results from PubChem BioAssay (NCI).
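Assay format: 96-well plates, 48-hour exposure. Here, GI50 denotes the concentration required for 50% inhibition of growth. Definition used: TGI = concentration required for complete inhibition of growth.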

Tests used:
Assay in all cases: inhibition of tumour cell growth, NCI panel, 48 h
[1] = test system: 786-0 renal
[2] = test system: A498 renal
[3] = test system: A549 NSCLC
[4] = test system: ACHN renal
[5] = test system: BT-549 breast
[6] = test system: CAKI-1 renal
[7] = test system: CCRF-CEM leukemia
[8] = test system: COLO 205 colon
[9] = test system: DU-145 prostate
[10] = test system: HCC-2998 colon
[11] = test system: HCT-116 colon
[12] = test system: HCT-15 colon
[13] = test system: HL-60(TB) leukemia
[14] = test system: HOP-62 NSCLC
[15] = test system: HOP-92 NSCLC
[16] = test system: HS 578T breast
[17] = test system: HT29 colon
[18] = test system: IGROV1 ovarian
[19] = test system: K-562 leukemia
[20] = test system: KM12 colon
[21] = test system: LOX IMVI melanoma
[22] = test system: M14 melanoma
[23] = test system: MALME-3M melanoma
[24] = test system: MCF7 breast
[25] = test system: MDA-MB-231 breast
[26] = test system: MDA-MB-435
[27] = test system: MOLT-4 leukemia
[28] = test system: NCI-H226 lung
[29] = test system: NCI-H23 lung
[30] = test system: NCI-H460 lung
[31] = test system: NCI-H522 lung
[32] = test system: NCI/ADR-RES ovarian
[33] = test system: OVCAR-3 ovarian
[34] = test system: OVCAR-4 ovarian
[35] = test system: OVCAR-5 ovarian
[36] = test system: OVCAR-8 ovarian
[37] = test system: PC-3 prostate
[38] = test system: RPMI-8226 leukemia
[39] = test system: RXF 393 renal
[40] = test system: SF-268 CNS
[41] = test system: SF-295 CNS
[42] = test system: SF-539 CNS
[43] = test system: SK-MEL-2 melanoma
[44] = test system: SK-MEL-28 melanoma
[45] = test system: SK-MEL-5 melanoma
[46] = test system: SK-OV-3 ovarian
[47] = test system: SN12C renal
[48] = test system: SNB-19 CNS
[49] = test system: SNB-75 CNS
[50] = test system: SW-620 colon
[51] = test system: T-47D breast
[52] = test system: TK-10 renal
[53] = test system: U251 CNS
[54] = test system: UACC-257 melanoma
[55] = test system: UACC-62 melanoma
[56] = test system: UO-31 renal
[57] = test system: EKVX NSCLC

O=C1/C(=C\c2ccc(F)cc2)CN(C(=O)c2ccc([N+](=O)[O-])cc2)C/C1=C\c1ccc(F)cc1
GI50 [1]: 1.89 µM | TGI [1]: 4.32 µM | GI50 [2]: 4.4 µM | TGI [2]: 47 µM | GI50 [3]: 3.63 µM | TGI [3]: > 77.3 µM | GI50 [4]: 2.46 µM | TGI [4]: 7.49 µM | GI50 [5]: 2 µM | TGI [5]: 4.41 µM | GI50 [6]: 6.64 µM | TGI [6]: > 100 µM | GI50 [7]: 1640 nM | TGI [7]: > 42.6 µM | GI50 [8]: 3.17 µM | TGI [8]: 12.7 µM | GI50 [9]: 4.31 µM | TGI [9]: > 51.8 µM | GI50 [10]: 1950 nM | TGI [10]: 3.76 µM | GI50 [11]: 210 nM | TGI [11]: 448 nM | GI50 [12]: 1310 nM | TGI [12]: 4.31 µM | GI50 [13]: 5.07 µM | TGI [13]: > 50.2 µM | GI50 [14]: 2560 nM | TGI [14]: 7.85 µM | GI50 [15]: 11.4 µM | TGI [15]: > 100 µM | GI50 [16]: 2.29 µM | TGI [16]: 8.79 µM | GI50 [17]: 517 nM | TGI [17]: 3.52 µM | GI50 [18]: 2670 nM | TGI [18]: 11 µM | GI50 [19]: 915 nM | TGI [19]: > 43.2 µM | GI50 [20]: 568 nM | TGI [20]: 2.19 µM | GI50 [21]: 373 nM | TGI [21]: 1470 nM | GI50 [22]: 2280 nM | TGI [22]: 6.81 µM | GI50 [23]: 8.22 µM | TGI [23]: 45.9 µM | GI50 [24]: 0.389 µM | TGI [24]: 4.19 µM | GI50 [25]: 2380 nM | TGI [25]: 7.92 µM | GI50 [26]: 1.83 µM | TGI [26]: > 27.7 µM | GI50 [27]: 2700 nM | TGI [27]: > 85.2 µM | TGI [28]: > 21.4 µM | GI50 [29]: 3.6 µM | TGI [29]: 15.6 µM | GI50 [30]: 4.26 µM | TGI [30]: > 40.4 µM | GI50 [31]: 4.3 µM | TGI [31]: 30.7 µM | GI50 [32]: 3.65 µM | TGI [32]: > 100 µM | GI50 [33]: 2.69 µM | TGI [33]: 7.53 µM | GI50 [34]: 3.61 µM | TGI [34]: > 100 µM | GI50 [35]: 4.6 µM | TGI [35]: 49.5 µM | GI50 [36]: 2.97 µM | TGI [36]: > 100 µM | GI50 [37]: 2.14 µM | TGI [37]: 14.5 µM | GI50 [38]: 302 nM | TGI [38]: 1.62 µM | GI50 [39]: 1.53 µM | TGI [39]: 3.19 µM | GI50 [40]: 3.41 µM | TGI [40]: > 100 µM | GI50 [41]: 2990 nM | TGI [41]: 16.4 µM | GI50 [42]: 2930 nM | TGI [42]: 10.2 µM | GI50 [43]: 20.4 µM | TGI [43]: > 100 µM | GI50 [44]: 3.72 µM | TGI [44]: 15.1 µM | GI50 [45]: 1690 nM | TGI [45]: 3.84 µM | GI50 [46]: 3.7 µM | TGI [46]: 26.8 µM | GI50 [47]: 2190 nM | TGI [47]: 6.55 µM | GI50 [48]: 3.58 µM | TGI [48]: 49.1 µM | GI50 [49]: 7.66 µM | TGI [49]: > 93 µM | GI50 [50]: 885 nM | TGI [50]: 5.35 µM | GI50 [51]: 6.61 µM | TGI [51]: > 100 µM | GI50 [52]: 5.05 µM | TGI [52]: 82.7 µM | GI50 [53]: 1.55 µM | TGI [53]: 3.97 µM | GI50 [54]: 4.17 µM | TGI [54]: 28.1 µM | GI50 [55]: 1980 nM | TGI [55]: 6.27 µM | GI50 [56]: 1690 nM | TGI [56]: 6.99 µM

NCCCCCCCCn1c2c(c3ccccc3c1=O)C(=O)c1ccccc1-2
GI50 [1]: 21 µM | TGI [1]: 56.4 µM | GI50 [2]: 3.48 µM | TGI [2]: 15.8 µM | GI50 [3]: 8.93 µM | TGI [3]: 50.8 µM | GI50 [4]: 4.07 µM | TGI [4]: 14 µM | GI50 [5]: 5.18 µM | TGI [5]: 23.3 µM | GI50 [6]: 3.25 µM | TGI [6]: 9.03 µM | GI50 [9]: 3.4 µM | TGI [9]: 14 µM | GI50 [57]: 17.4 µM | TGI [57]: 44.7 µM | GI50 [10]: 1890 nM | TGI [10]: 3.75 µM | GI50 [12]: 3260 nM | TGI [12]: 10.2 µM | GI50 [13]: 2.34 µM | TGI [13]: 6.23 µM | GI50 [14]: 2130 nM | TGI [14]: 4.69 µM | GI50 [15]: 2.4 µM | TGI [15]: 8.47 µM | GI50 [16]: 3.83 µM | TGI [16]: 22.2 µM | GI50 [17]: 1860 nM | TGI [17]: 4.02 µM | GI50 [19]: 1870 nM | TGI [19]: 3.67 µM | GI50 [20]: 2120 nM | TGI [20]: 4.59 µM | GI50 [21]: 3640 nM | TGI [21]: > 100000 nM | GI50 [22]: 3400 nM | TGI [22]: 10.4 µM | GI50 [23]: 2.85 µM | TGI [23]: 8.86 µM | GI50 [24]: 7.45 µM | TGI [24]: 46.2 µM | GI50 [25]: 2120 nM | TGI [25]: 5.73 µM | GI50 [26]: 5.63 µM | TGI [26]: 21.5 µM | GI50 [27]: 1820 nM | TGI [27]: 3.53 µM | GI50 [28]: 14 µM | TGI [28]: 34.8 µM | GI50 [29]: 4.57 µM | TGI [29]: 21.6 µM | GI50 [30]: 3.66 µM | TGI [30]: 24.8 µM | GI50 [31]: 2.46 µM | TGI [31]: 6.37 µM | GI50 [32]: 4.29 µM | TGI [32]: 85.1 µM | GI50 [33]: 3.5 µM | TGI [33]: 11.6 µM | GI50 [34]: 4.34 µM | TGI [34]: 27.4 µM | GI50 [35]: 2.67 µM | TGI [35]: 7.89 µM | GI50 [36]: 3.98 µM | TGI [36]: > 100 µM | GI50 [37]: 5.05 µM | TGI [37]: 23.3 µM | GI50 [38]: 4020 nM | TGI [38]: 23.7 µM | GI50 [39]: 4.58 µM | TGI [39]: > 100 µM | GI50 [40]: 6.44 µM | TGI [40]: > 100 µM | GI50 [41]: 2570 nM | TGI [41]: 7.18 µM | GI50 [42]: 2840 nM | TGI [42]: 8.62 µM | GI50 [43]: 2.83 µM | TGI [43]: 6.98 µM | GI50 [44]: 2.87 µM | TGI [44]: 8.47 µM | GI50 [45]: 1910 nM | TGI [45]: 3.94 µM | GI50 [46]: 16.6 µM | TGI [46]: 39.4 µM | GI50 [47]: 3450 nM | TGI [47]: 11.3 µM | GI50 [48]: 5.9 µM | TGI [48]: 80.8 µM | GI50 [49]: 7.65 µM | TGI [49]: 26.8 µM | GI50 [50]: 1800 nM | TGI [50]: 3.34 µM | GI50 [51]: 4.97 µM | TGI [51]: 36.6 µM | GI50 [52]: 1.93 µM | TGI [52]: 3.88 µM | GI50 [53]: 13.4 µM | TGI [53]: 35.9 µM | GI50 [54]: 4.97 µM | TGI [54]: 20.6 µM | GI50 [55]: 3760 nM | TGI [55]: 14.1 µM | GI50 [56]: 3360 nM | TGI [56]: 12.3 µM
